Assay results from ChEMBL document CHEMBL1201862, “PubChem BioAssay data set” (2004).
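Grown in 96-well plates, cells were treated for 48 hours with each compound at five concentrations. Insufficient inhibition: endpoint recorded as highest concentration tested. Abbreviation: GI50, concentration required for 50% inhibition of growth.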 Calls of active or inactive are those of the source. Cut-off read from the data, not from the text of the source: active = GI50 up to about 1.1 µM and inactive = higher.

Assays:
Experiment in all cases: NCI tumour cell line growth inhibition, 48 h
[1] = tested on: HOP-62
[2] = tested on: NCI/ADR-RES
[3] = tested on: EKVX
[4] = tested on: SW-620
[5] = tested on: NCI-H460
[6] = tested on: DU-145
[7] = tested on: HCC 2998
[8] = tested on: NCI-H23
[9] = tested on: T47D
[10] = tested on: A498
[11] = tested on: OVCAR-3
[12] = tested on: SR
[13] = tested on: MDA-N
[14] = tested on: OVCAR-8
[15] = tested on: NCI-H226
[16] = tested on: SN12C
[17] = tested on: PC-3
[18] = tested on: SK-MEL-2
[19] = tested on: M14
[20] = tested on: Hs-578T

Compound | GI50 [1] | GI50 [2] | GI50 [3] | GI50 [4] | GI50 [5] | GI50 [6] | GI50 [7] | GI50 [8] | GI50 [9] | GI50 [10] | GI50 [11] | GI50 [12] | GI50 [13] | GI50 [14] | GI50 [15] | GI50 [16] | GI50 [17] | GI50 [18] | GI50 [19] | GI50 [20]
Cn1ncc2c(NCc3ccccc3)ncnc21 | > 100 µM (inactive) | > 100 µM (inactive) | > 100 µM (inactive) | > 100 µM (inactive) | > 100 µM (inactive) | > 100 µM (inactive) | > 100 µM (inactive) | > 100 µM (inactive) | > 100 µM (inactive) | > 100 µM (inactive) | > 100 µM (inactive) | > 100 µM (inactive) | > 100 µM (inactive) | > 100 µM (inactive) | > 100 µM (inactive) | > 100 µM (inactive) | – | – | – | –
COc1ccc(-n2c(=O)n(-c3ccccc3)c(=O)n2-c2ccc(OC)cc2)cc1 | > 100 µM (inactive) | > 100 µM (inactive) | > 100 µM (inactive) | > 100 µM (inactive) | – | > 100 µM (inactive) | > 100 µM (inactive) | > 100 µM (inactive) | > 100 µM (inactive) | > 100 µM (inactive) | > 100 µM (inactive) | – | > 100 µM (inactive) | > 100 µM (inactive) | > 100 µM (inactive) | > 100 µM (inactive) | > 100 µM (inactive) | > 100 µM (inactive) | > 100 µM (inactive) | –
CCOC(=O)c1nc2ccccc2nc1Nc1ccc(OC)cc1 | 15 µM (inactive) | 34.8 µM (inactive) | 47.8 µM (inactive) | > 100 µM (inactive) | 40 µM (inactive) | 73.1 µM (inactive) | > 100 µM (inactive) | 54.2 µM (inactive) | 43.5 µM (inactive) | 18.6 µM (inactive) | 19.7 µM (inactive) | > 100 µM (inactive) | – | 73.3 µM (inactive) | 37.5 µM (inactive) | 14.8 µM (inactive) | 31.4 µM (inactive) | 33.7 µM (inactive) | > 100 µM (inactive) | 41.2 µM (inactive)
COc1cc(CCC(=O)NS(=O)(=O)c2ccccc2)cc(OC)c1OC | > 100 µM (inactive) | – | > 100 µM (inactive) | > 100 µM (inactive) | > 100 µM (inactive) | – | > 100 µM (inactive) | > 100 µM (inactive) | – | > 100 µM (inactive) | > 100 µM (inactive) | > 100 µM (inactive) | – | > 100 µM (inactive) | > 100 µM (inactive) | > 100 µM (inactive) | – | > 100 µM (inactive) | > 100 µM (inactive) | –
c1ccc2c(c1)CCc1c-2n(CCN2CCCCC2)c2ccccc12 | 15.8 µM (inactive) | 16.8 µM (inactive) | 20.4 µM (inactive) | 20.8 µM (inactive) | 15.6 µM (inactive) | 39.4 µM (inactive) | 13.1 µM (inactive) | 17.7 µM (inactive) | 15.5 µM (inactive) | – | 16.6 µM (inactive) | 8.81 µM (inactive) | – | 17.7 µM (inactive) | 10.9 µM (inactive) | 17.3 µM (inactive) | 11.8 µM (inactive) | 16.3 µM (inactive) | 13.5 µM (inactive) | 18.2 µM (inactive)
O=c1[nH]c(=O)n(COCCO)c2ccc(Br)cc12 | – | > 100 µM (inactive) | 92.3 µM (inactive) | > 100 µM (inactive) | > 100 µM (inactive) | > 100 µM (inactive) | – | – | – | > 100 µM (inactive) | > 100 µM (inactive) | 80.4 µM (inactive) | > 100 µM (inactive) | > 100 µM (inactive) | 25.2 µM (inactive) | > 100 µM (inactive) | – | > 100 µM (inactive) | > 100 µM (inactive) | –
N#Cc1c(CC(=O)O)cc(=O)n2c1[nH]c1ccccc12 | > 100 µM (inactive) | – | > 100 µM (inactive) | > 100 µM (inactive) | > 100 µM (inactive) | – | > 100 µM (inactive) | > 100 µM (inactive) | – | > 100 µM (inactive) | > 100 µM (inactive) | > 100 µM (inactive) | – | > 100 µM (inactive) | > 100 µM (inactive) | > 100 µM (inactive) | – | > 100 µM (inactive) | > 100 µM (inactive) | –
c1ccc(C2CC(NC3CCCCC3)=Nc3ccccc3N2)cc1 (centres undefined) | > 100 µM (inactive) | > 100 µM (inactive) | 54.8 µM (inactive) | > 100 µM (inactive) | 46.9 µM (inactive) | > 100 µM (inactive) | – | 54.1 µM (inactive) | – | 18.8 µM (inactive) | > 100 µM (inactive) | – | 75.9 µM (inactive) | > 100 µM (inactive) | > 100 µM (inactive) | > 100 µM (inactive) | 33.6 µM (inactive) | > 100 µM (inactive) | 27.4 µM (inactive) | 28.4 µM (inactive)
COc1ccc(Oc2nc3ccc(C(F)(F)F)cc3nc2-c2ccccc2)cc1 | > 100 µM (inactive) | – | > 100 µM (inactive) | > 100 µM (inactive) | > 100 µM (inactive) | > 100 µM (inactive) | 25.3 µM (inactive) | 1.13 µM (inactive) | – | > 100 µM (inactive) | > 100 µM (inactive) | 13.1 µM (inactive) | – | – | > 100 µM (inactive) | > 100 µM (inactive) | > 100 µM (inactive) | > 100 µM (inactive) | – | > 100 µM (inactive)
CC(=O)OCC1OC(n2c(-c3ccccc3)c(C(C)=O)c(-c3ccc(Cl)cc3)c(C#N)c2=S)C(OC(C)=O)C(OC(C)=O)C1OC(C)=O (centres undefined) | > 100 µM (inactive) | > 100 µM (inactive) | > 100 µM (inactive) | > 100 µM (inactive) | 26.8 µM (inactive) | > 100 µM (inactive) | > 100 µM (inactive) | > 100 µM (inactive) | > 100 µM (inactive) | > 100 µM (inactive) | > 100 µM (inactive) | > 100 µM (inactive) | 62.8 µM (inactive) | > 100 µM (inactive) | > 100 µM (inactive) | > 100 µM (inactive) | 1.93 µM (inactive) | < 0.01 µM (active) | > 100 µM (inactive) | –
[O-][Cl+3]([O-])([O-])[O-].c1ccc(-c2csc3c4ccccc4c4ccccc4[n+]23)cc1 | 7.1 µM (inactive) | – | 8.79 µM (inactive) | 3.5 µM (inactive) | 2.51 µM (inactive) | – | 1.54 µM (inactive) | 0.553 µM (active) | – | 14.8 µM (inactive) | 0.897 µM (active) | 4.99 µM (inactive) | – | 2.59 µM (inactive) | 3.1 µM (inactive) | 1.65 µM (inactive) | – | 2.54 µM (inactive) | 9.48 µM (inactive) | –
COC(=O)C(Cc1nc2ccc(Cl)cc2nc1O)C(=O)C(=O)Nc1cc(C)ccc1C (centres undefined) | > 100 µM (inactive) | – | 8.2 µM (inactive) | > 100 µM (inactive) | > 100 µM (inactive) | – | > 100 µM (inactive) | > 100 µM (inactive) | – | > 100 µM (inactive) | > 100 µM (inactive) | > 100 µM (inactive) | – | > 100 µM (inactive) | > 100 µM (inactive) | > 100 µM (inactive) | – | > 100 µM (inactive) | > 100 µM (inactive) | –
N#C/C(=C/NC(=S)Nc1ccc(S(N)(=O)=O)cc1)C(N)=O | > 100 µM (inactive) | – | > 100 µM (inactive) | > 100 µM (inactive) | > 100 µM (inactive) | > 100 µM (inactive) | > 100 µM (inactive) | > 100 µM (inactive) | – | > 100 µM (inactive) | > 100 µM (inactive) | > 100 µM (inactive) | > 100 µM (inactive) | > 100 µM (inactive) | – | > 100 µM (inactive) | > 100 µM (inactive) | – | > 100 µM (inactive) | > 100 µM (inactive)
CCOC(=O)CCC(NC(=O)c1ccc(CNc2nc3cc(N)cc(N)c3nc2-c2ccccc2)cc1)C(=O)OCC (centres undefined) | > 100 µM (inactive) | > 100 µM (inactive) | > 100 µM (inactive) | > 100 µM (inactive) | 34 µM (inactive) | > 89.3 µM (inactive) | > 100 µM (inactive) | > 67.6 µM (inactive) | 20.7 µM (inactive) | > 100 µM (inactive) | 27 µM (inactive) | 3.64 µM (inactive) | – | > 100 µM (inactive) | > 100 µM (inactive) | > 61.5 µM (inactive) | > 100 µM (inactive) | 28.8 µM (inactive) | 28.4 µM (inactive) | > 84.5 µM (inactive)
CC(CC(C)[C@H]1CCC2[C@H]3C(CC(=O)[C@@]21C)[C@@]1(C)CCC(O)C[C@H]1C[C@@H]3O)C(=O)O (some centres undefined) | > 100 µM (inactive) | > 100 µM (inactive) | > 100 µM (inactive) | 87.1 µM (inactive) | 61.8 µM (inactive) | > 100 µM (inactive) | > 100 µM (inactive) | > 100 µM (inactive) | > 100 µM (inactive) | > 100 µM (inactive) | – | 18.3 µM (inactive) | > 100 µM (inactive) | > 100 µM (inactive) | > 100 µM (inactive) | > 100 µM (inactive) | > 100 µM (inactive) | > 100 µM (inactive) | > 100 µM (inactive) | –
OC(CCN1CCCCC1)(c1ccccc1)c1ccccc1 [PRIDINOL] | > 100 µM (inactive) | > 100 µM (inactive) | 79.6 µM (inactive) | > 100 µM (inactive) | – | > 100 µM (inactive) | – | > 100 µM (inactive) | > 100 µM (inactive) | > 100 µM (inactive) | > 100 µM (inactive) | – | > 100 µM (inactive) | > 100 µM (inactive) | – | > 100 µM (inactive) | > 100 µM (inactive) | > 100 µM (inactive) | > 100 µM (inactive) | –
